# Conditions: rat; liver microsomes; pH 7.4; 15.0 min; 1.0 µM
row,Compound,half-life [min]
1,C[C@@H]1C(=O)O[C@H]2[C@H]1CC[C@@]1(C)Cc3sc(NS(=O)(=O)Cc4ccccc4)nc3[C@@H](C)[C@H]21,1.69
2,CCCSc1nc(N[C@@H]2C[C@H]2c2ccc(F)c(F)c2)c2nnn([C@@H]3C[C@H](OCCO)[C@@H](O)[C@H]3O)c2n1,> 30
3,CCOC(=O)C1CCN(c2ncnc3c2c(-c2ccccc2)cn3-c2ccccc2)CC1,1.69
4,Cc1ccc(-c2csc(CCn3nc(C)c4c(C(F)(F)F)cc(=O)[nH]c43)n2)cc1,4.7
5,O=c1[nH]c(C2CCCN(CC3CCCCC3)C2)nn1-c1ccc(Cl)cc1 (stereo not drawn),> 30
6,COc1ccc2c3c([nH]c2c1)C1CC2C(CC(O)C(OC)C2CO)CN1CC3 (stereo not drawn),> 30
7,NC(=O)C1CCN(c2nc(-c3ccc4c(c3)OCCCO4)cs2)CC1,6.7
8,Cc1cnc(-c2ccccc2C(F)F)nc1NCc1ccc(-n2ccnn2)cc1,21
9,COc1ccccc1CNc1ccc(S(=O)(=O)Nc2nccs2)cc1,2.8
10,Cc1ccc(S(=O)(=O)Nc2cccc(C(=O)Nc3nc(-c4ccccc4)cs3)c2)cc1,16
11,NC(=O)C1CCN(c2nccc(-c3ccc4c(c3)OCCO4)n2)CC1,1.71
12,CN(C)c1cccc(-c2nc(N3CCC(C(N)=O)CC3)ncc2F)c1,1.45
13,CCOC(=O)c1c(C)c(-c2ccccc2)n(CC(=O)NCc2ccccc2)c1C,2.28
14,Fc1cc(Nc2nc(-c3ccncc3)nc3ccccc23)ccc1-c1cc(F)c(F)c(F)c1,> 30
15,CN[C@@H]1C[C@@H](c2ccc(Cl)c(Cl)c2)c2ccccc21,17.2
16,COc1ccc(-c2noc([C@@H]3Cc4nc[nH]c4CN3C(=O)NC3CCCCC3)n2)cc1,6.59
17,Cc1cc(C)nc(N2CCCC(C(=O)NCCc3ccc(F)cc3)C2)n1 (stereo not drawn),1.6
18,CCOc1ccc(/C=C/c2nc3ccccc3n2S(=O)(=O)c2ccc(Br)cc2)cc1,> 30
19,CNC(=O)C1=C(C)NC(Nc2nc3ccccc3o2)=NC1c1[nH]ncc1Cl (stereo not drawn),5.7
20,Cc1ccc(S(=O)(=O)Nc2cnccc2C(=O)Nc2nc(-c3cnn(C)c3)cs2)cc1,13
21,Cc1cc(/C=C2/C(=O)Nc3ccccc32)cc(C)c1O,11
22,Cn1ccc2c(C(=O)NCC3CCC(=O)N3)nc(-c3ccccc3C#N)cc21 (stereo not drawn),21.9
23,Cc1ccc(-c2csc(N3CCC(C(N)=O)CC3)n2)cc1,2.22
24,Cc1ccc(S(=O)(=O)Nc2cncc(C(=O)Nc3nc(-c4ccccc4)cs3)c2)cc1,19
25,Cc1cnc(-c2ccccc2C(F)F)nc1NCc1ccc(-c2cccnc2)cc1,8.1
26,COC(=O)c1ccccc1C(=O)Nc1nc(-c2ccccc2)cs1,3

row,Compound,half-life [min]
1,COC(=O)[C@@H]1C[C@H](OC(C)=O)C(=O)[C@H]2[C@@]1(C)CCC1C(=O)O[C@H](c3ccoc3)C[C@@]12C (stereo partly drawn),9.8
2,COc1ccc(-c2csc(N3CCC(C(N)=O)CC3)n2)cc1OC,> 30
3,O=C(/C=C/c1cn(CC(O)CN2CCCCCC2)c2ccccc12)c1ccc(Br)cc1 (stereo not drawn),24.2
4,COC(=O)Nc1nc2ccc(SC(C)C)cc2[nH]1,9.99
5,CCc1cccc(NC(=O)CSc2nc3ccccc3nc2N2CCCCC2)c1,1.97
6,COc1ccc(C2=Nn3c(nnc3-c3ccncc3)SC2)cc1,1.9
7,COc1ccc(C2c3c(ncn(CCN4CCOCC4)c3=N)Oc3ccc4ccccc4c32)cc1OC (stereo not drawn),3.6
8,CN(C)CCNC(=O)c1nc(-c2ccccc2)cc2[nH]ccc12,1.92
9,CC(=O)c1ccc(N2CCN(S(=O)(=O)c3ccc4[nH]c(=O)[nH]c4c3)CC2)cc1,> 30
10,O=[S+]([O-])(Nc1nccs1)c1ccc(NCc2cccc(Cl)c2)cc1,15
11,CCOC(=O)C1(Cc2ccccc2C(F)(F)F)CCN(C2CCN(C(C)C)CC2)CC1,> 30
12,COc1ccc(CCNC(=O)Cn2c(=O)c3cccn3c3ccc(F)cc32)cc1OC,1.81
13,CNC(=O)C1CCN(c2nc(-c3ccc(Br)cc3)cs2)CC1,26.2
14,CCNC(=O)Nc1ncc(-c2cc(-c3c(C)cc(OC)cc3C)nc(-c3cnccn3)n2)s1,> 30
15,c1ccc2c(NC3CCCCC3)nc(-c3ccncc3)nc2c1,10
16,O=S(=O)(Nc1nccs1)c1ccc(NCc2ccc(Cl)cc2O)cc1,7.5
17,Cc1ccc(C(=O)Nc2nc(-c3ccccn3)cs2)cc1S(=O)(=O)N1CCOCC1,4.16
18,NC(=O)C1CCN(c2nc(-c3cccs3)cs2)CC1,3.98
19,COc1cc(C2c3c(oc4cc(C)c(C)cc4c3=O)C(=O)N2CCCN2CCOCC2)ccc1O (stereo not drawn),12.7
20,O=[S+]([O-])(Nc1ccccc1)c1ccc(NCc2cccc(Cl)c2F)cc1,4.5
21,Nc1c(C(=O)N2CCCCC2)sc(=S)n1-c1ccccc1,6.6
22,Cc1ccc2cccc(NC(=O)c3ccc(OC(C)C)cc3)c2n1,17.9
23,COc1cccc(CNc2ccc(S(=O)(=O)Nc3cnc4ccccc4c3)cc2)c1O,13
24,CC[S+](=O)([O-])Nc1ccccc1C(=O)Nc1nc(-c2ccccc2)cs1,14
25,COc1ccccc1C(=O)Nc1ccccc1C(=O)Nc1cccc(C(F)(F)F)c1,> 30
26,Cc1cccc(-n2ccc(=O)c(C(=O)Nc3ccc(S(=O)(=O)Nc4nccs4)cc3)n2)c1,> 30

row,Compound,half-life [min]
1,Cc1ccccc1C(=O)N1CCc2cc(-c3csc(NC(=O)Cc4ccc5c(c4)OCO5)n3)ccc21,10.2
2,O=[S+]([O-])(Nc1ccc(N2CCNCC2)cc1)c1ccc(NCc2cccc(Cl)c2O)cc1,> 30
3,N#C/C(=C\c1ccc(-c2ccc(C(=O)O)cc2)o1)c1nc2ccccc2[nH]1,> 30
4,CCOC(=O)CCNc1cc(N2CCc3ccccc3CC2)nc(-c2cccnc2)n1,2.31
5,CCC(=O)NC(c1ccco1)c1cc(Cl)c2cccnc2c1O (stereo not drawn),3.3
6,O=C(Cc1n[nH]c(=O)c2ccccc12)NC1CCCc2c1[nH]c1c(Cl)cccc21 (stereo not drawn),8.05
7,COc1ccc(-n2c(C)c(C(C)=O)c3cc(O)ccc32)cc1,2.2
8,Cn1nnnc1Sc1ncnc2scc(-c3cc4ccccc4o3)c12,1.05
9,c1coc(-c2nc3ccncc3[nH]2)c1,> 30
10,Cc1nc(NC2CCCCC2)c2nc(-c3ccccc3)n(CCN(C)C)c2n1,3.74
11,COc1ccc(-c2ccc(Nc3nc(-c4ccncc4)nc4ccccc34)cc2F)cc1F,11
12,CCC1=Nc2cc(C(=O)NCCCOC)ccc2Sc2ccc(Br)cc21,5.46
13,O=C(NC1CCCc2c1cnn2-c1ccc(F)cc1F)c1ccccc1 (stereo not drawn),> 30
14,COc1ccc(N2Cc3cccc(C(=O)Nc4ccc(C(C)C)cc4)c3C2=O)cc1,> 30
15,O=C(C1CCN(c2nc(-c3ccc(Br)cc3)cs2)CC1)N1CCOCC1,> 30
16,Cn1cncc1[C@@](N)(c1ccc(Cl)cc1)c1ccc2c(c1)c(-c1cccc(Cl)c1)cc(=O)n2C,9.54
17,O=C(NC1CC1)c1nc(-c2cccnc2)c2ccccn12,21.8
18,Cc1ccc(C)c(SC2=NS(=O)(=O)c3ccccc32)c1,1.21
19,O=C(CCCCCCC(=O)Nc1ccccc1)NO,> 30
20,O=C(Nc1ccccc1O)c1ccc(NC(=O)C2CC2)cc1,> 30
21,CC(C)Oc1cccc(-c2csc(N3CCC(C(N)=O)CC3)n2)c1,3.09
22,O=C(Nc1nc(-c2ccccc2)cs1)c1ccncc1NS(=O)(=O)c1cccc2cccnc12,7.4
23,COc1ccc(-c2ccc3nc(-c4cc(C)cc(C)c4)oc3c2)c(OC)c1OC,> 30
24,COc1cc2nc(N3CCCC3)nc(NCCCCCN3CCCC3)c2cc1OC,> 30
25,COc1ccc(OC)c(N2C(=O)C(Cl)=C(N3CCCCC3)C2=O)c1,1.5
26,COC(=O)Nc1nc2ccc(Sc3ccccc3)cc2[nH]1,18.4

row,Compound,half-life [min]
1,CNC(=O)c1cc(Oc2ccc(NC(=O)Nc3ccc(Cl)c(C(F)(F)F)c3)c(F)c2)ccn1,> 30
2,COc1cc(/C=C(\C#N)C(=O)c2ccc(O)c(O)c2)cc(I)c1O,> 30
3,CC(C)c1nc(CN(C)C(=O)N[C@H](C(=O)N[C@@H](Cc2ccccc2)C[C@H](O)[C@H](Cc2ccccc2)NC(=O)OCc2cncs2)C(C)C)cs1,22.1
4,O=S(=O)(Nc1cccc2ccccc12)c1ccc(NCc2ccc(Br)cc2O)cc1,7.4
5,Nc1c(C(=O)Nc2ccc(F)cc2)sc2nc(-c3cccs3)cc(C(F)(F)F)c12,> 30
6,O=S(=O)(Nc1nccs1)c1ccc(NCc2cccc(Cl)c2Cl)cc1,25
7,Cc1noc(C)c1CN1CCNc2cc(Nc3ccccc3)ncc2C1,5.25
8,Cc1ccc(S(=O)(=O)N2CCCc3cc(NS(=O)(=O)c4ccccc4)ccc32)cc1,1
9,COc1ccc(Cl)cc1C(=O)Nc1nc(-c2ccccc2)cs1,24
10,CC1=NN(c2ccc(C(=O)O)cc2)C(=O)/C1=C/c1ccc(-c2cc(C)c(C)cc2[N+](=O)[O-])o1,22.2
11,CS(=O)(=O)N1CCN(c2nc(-c3ccc(Br)cc3)cs2)CC1,> 30
12,O=C1Nc2cc(Cl)ccc2Nc2cscc21,21.8
13,COCCCNC(=O)c1cc2cc(S(=O)(=O)N(C)C)ccc2n1C,25
14,CCOC(=O)C1CCN(C(=O)C2(NC(=O)Nc3ccc(F)cc3F)CCCCC2)CC1,2.7
15,Cc1cc(S(=O)(=O)Nc2cnccc2C(=O)Nc2nc(-c3ccccc3)cs2)c(C)o1,8.55
16,O=C1CCCC2=C1C(c1[nH]ncc1Cl)N=C(Nc1nc3c(Br)cccc3o1)N2 (stereo not drawn),3.2
17,Cc1c(CN(C)c2cc(C3CC(O)C3)nc(N)n2)[nH]c2ccccc12 (stereo not drawn),15
18,C[C@@H]1[C@@H](CC(C[C@H]2O[C@@H]3O[C@]4(C)CC[C@@H]5[C@H](C)CC[C@@H]([C@H]2C)[C@@]35OO4)C(=O)NCc2ccc(F)cc2)O[C@@H]2O[C@]3(C)CC[C@H]4[C@H](C)CC[C@@H]1[C@@]24OO3 (stereo partly drawn),2.4
19,CCCCOc1ccc(CC(=O)NO)cc1,> 30
20,O=C(c1csnn1)N1CCC2(CCCN(C(c3ccccc3)c3ccccc3)C2)CC1,2.1
21,O=C(O)[C@H]1O[C@H]1C(=O)O,14.7
22,CNc1nc(C#N)c(-c2cccc3ccccc23)o1,4.8
23,CCCCn1cnc2cc(NCc3ccc(OCC)cc3)ccc21,10.3
24,O=C1CCCc2cc(S(=O)(=O)Nc3cnccc3C(=O)Nc3nc(-c4ccccc4)cs3)ccc2N1,> 30
25,Cc1cc(N2CCN(c3ccccc3)CC2)nc(-n2nc(C)cc2C)n1,> 30
